In the supplement of paper PMC10307832:

Assays:
Assay in all cases: relative viability (nuclei count vs DMSO), 5 days (fraction); higher = more cells survive
Gemcitabine + Trametinib = compound: Nc1ccn([C@@H]2O[C@H](CO)[C@@H](O)C2(F)F)c(=O)n1 [Gemcitabine] + CC(=O)Nc1cccc(-n2c(=O)n(C3CC3)c(=O)c3c(Nc4ccc(I)cc4F)n(C)c(=O)c(C)c32)c1 [Trametinib] (partner 0.02 µM)
Procedure, shortened: (§1)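 Medians of duplicate plates are given as relative viability. That measure is the nuclei count in treated wells divided by the count in vehicle wells. Counts were taken on 4× images of lung cancer cell lines in 1536-well plates, 5 days after pin-tool dosing the day after seeding with one drug alone or a fixed anchor-drug dose plus five library-drug doses (not always all listed) in √10 steps.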

Gemcitabine + Phenformin = compound: Nc1ccn([C@@H]2O[C@H](CO)[C@@H](O)C2(F)F)c(=O)n1 [Gemcitabine] + N=C(N)NC(=N)NCCc1ccccc1 [Phenformin] (partner 250 µM)
Procedure, shortened: as §1

Gemcitabine + OSI-027 = compound: Nc1ccn([C@@H]2O[C@H](CO)[C@@H](O)C2(F)F)c(=O)n1 [Gemcitabine] + COc1cccc2cc(-c3nc([C@H]4CC[C@H](C(=O)O)CC4)n4ncnc(N)c34)[nH]c12 [OSI-027] (partner 0.5 µM)
Procedure, shortened: as §1

Gemcitabine = compound: Nc1ccn([C@@H]2O[C@H](CO)[C@@H](O)C2(F)F)c(=O)n1 [Gemcitabine]
Procedure, shortened: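 Lung cancer cell lines in 1536-well plates were exposed by pinning to five library-drug doses (not always all listed) √10 apart, following an overnight hold at 37 °C. MetaXpress counted Hoechst-stained nuclei from 4× images taken after 5 days without medium change. Viability is the median ratio of treated-well to vehicle-well nuclei across plates. Plates required control CV below 25% and at least one doubling.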

Cell Line | relative viability (Gemcitabine + Trametinib; first compound 0.001 µM) | relative viability (Gemcitabine + Trametinib; first compound 0.003162 µM) | relative viability (Gemcitabine + Trametinib; first compound 0.01 µM) | relative viability (Gemcitabine + Trametinib; first compound 0.03162 µM) | relative viability (Gemcitabine + Trametinib; first compound 0.1 µM) | relative viability (Gemcitabine + Phenformin; first compound 0.001 µM) | relative viability (Gemcitabine + Phenformin; first compound 0.003162 µM) | relative viability (Gemcitabine + Phenformin; first compound 0.01 µM) | relative viability (Gemcitabine + Phenformin; first compound 0.03162 µM) | relative viability (Gemcitabine + Phenformin; first compound 0.1 µM) | relative viability (Gemcitabine + OSI-027; first compound 0.001 µM) | relative viability (Gemcitabine + OSI-027; first compound 0.003162 µM) | relative viability (Gemcitabine + OSI-027; first compound 0.01 µM) | relative viability (Gemcitabine + OSI-027; first compound 0.03162 µM) | relative viability (Gemcitabine + OSI-027; first compound 0.1 µM) | relative viability (Gemcitabine; 0.001 µM) | relative viability (Gemcitabine; 0.003162 µM) | relative viability (Gemcitabine; 0.01 µM) | relative viability (Gemcitabine; 0.03162 µM) | relative viability (Gemcitabine; 0.1 µM)
HCC-78 | 0.749 | 0.42 | 0.373 | 0.274 | 0.231 | 0.581 | 0.538 | 0.285 | 0.209 | 0.233 | 0.325 | 0.312 | 0.263 | 0.211 | 0.229 | 0.849 | 0.595 | 0.436 | 0.255 | 0.237
HCC-366 | 0.284 | 0.392 | 0.0497 | 0.0318 | 0.0203 | 0.622 | 0.662 | 0.144 | 0.0348 | 0.0327 | 0.899 | 1.23 | 0.478 | 0.0351 | 0.0249 | 0.992 | 0.939 | 0.535 | 0.0641 | 0.0314
HCC-827 | 0.537 | 0.247 | 0.316 | 0.184 | 0.156 | 0.448 | 0.248 | 0.281 | 0.197 | 0.154 | 0.802 | 0.477 | 0.444 | 0.159 | 0.159 | 1.05 | 0.928 | 0.783 | 0.51 | 0.252
HOP-62 | 0.366 | 0.405 | 0.24 | 0.122 | 0.0817 | 0.67 | 0.492 | 0.239 | 0.0719 | 0.0597 | 0.681 | 0.557 | 0.141 | 0.127 | 0.0935 | 0.923 | 0.855 | 0.176 | 0.103 | 0.0838
IA-LM | – | – | – | – | – | – | – | – | – | – | – | – | – | – | – | 0.963 | 0.88 | 0.74 | 0.108 | 0.0519
LC-2-ad | 0.926 | 1.01 | 0.845 | 0.645 | 0.236 | 0.569 | 0.347 | 0.339 | 0.212 | 0.161 | 0.817 | 0.578 | 0.279 | 0.195 | 0.188 | 1.03 | 0.763 | 0.762 | 0.316 | 0.159
LCLC-97TM1 | 0.169 | 0.143 | 0.12 | 0.126 | 0.0828 | 0.376 | 0.406 | 0.179 | 0.187 | 0.144 | 0.468 | 0.524 | 0.138 | 0.121 | 0.116 | 0.909 | 0.455 | 0.139 | 0.0859 | 0.0792
LCLC-103H | 0.61 | 0.695 | 0.709 | 0.712 | 0.56 | 0.321 | 0.318 | 0.279 | 0.198 | 0.193 | 0.442 | 0.449 | 0.418 | 0.288 | 0.296 | 0.933 | 1.07 | 1 | 0.769 | 0.376
LK-2 | 0.926 | 0.65 | 0.731 | 0.206 | 0.167 | 0.834 | 0.43 | 0.313 | 0.142 | 0.142 | 0.217 | 0.18 | 0.167 | 0.163 | 0.155 | 0.997 | 0.915 | 0.708 | 0.255 | 0.187
